Assay [1] has as its target recombinant SARS-CoV-2 Main protease (Mpro) (Severe acute respiratory syndrome coronavirus 2 (2019-nCoV) (SARS-CoV-2), UniProt P0DTD1). Nature of the assay: Cov Mpro Biochemical IC50 Assay. The conditions noted are these: read-out: MPro IC50.
The next assay deals with SARS-CoV-2-NLuc. Nature of the assay: microbe, parasite or virus in culture. The format is cell-based, SARS Coronavirus 2.
Setting [2] is: recombinant SARS-CoV-2 Mpro 7.5 nM, fluorogenic peptide substrate 40 μM.
Setting [3] is: Severe acute respiratory syndrome coronavirus, 48 h, read-out: MPro EC50.
Where [4] appears, read: recombinant SARS-CoV-2 Mpro, fluorogenic peptide substrate.

Where two headings read alike, the source gives them in different places.

Turning to `N#Cc1ccc(Cl)c(-c2cc3[nH]c(=O)n(-c4cncc5ccccc45)c(=O)c3s2)c1` [Example 545], the IC50 (in general, the concentration that gives 50% inhibition) in assay [1] (setting [2]) was 0.0294 µM. In the assay with SARS-CoV-2-NLuc (setting [3]), the EC50 – broadly, the concentration needed to bring the measured effect to its halfway point – was 0.112 µM.
Regarding `COc1ccc(Cl)c(-c2cc3[nH]c(=O)n(-c4cncc5scc(C)c45)c(=O)c3s2)c1` (single isomer, unassigned) [Example 1053, 6-(2-chloro-5-methoxyphenyl)-3-(3-methylthieno[2,3-c]pyridin-4-yl)thieno[3,2-d]pyrimidine-2,4(1H,3H)-dione], the IC50 in assay [1] (setting [2]) was 0.0833 µM. Moreover, in the assay on SARS-CoV-2-NLuc (read-out: MPro EC50), the EC50 stood at 0.0485 µM.
Regarding `Cc1ccc(-c2cc3c(s2)c(=O)n(-c2cncc4cnn(C)c24)c(=O)n3CCC#N)c(C#N)c1` [Example 840], the IC50 in assay [1] (setting [2]) turned out to be 0.0168 µM. Moreover, the EC50 in the assay with SARS-CoV-2-NLuc (setting [3]) worked out at 0.0433 µM.
As to `COc1cc(-c2cc3[nH]c(=O)n(-c4cncc5cccc(F)c45)c(=O)c3s2)c(Cl)cc1F` (single isomer, unassigned) [Example 900, 6-(2-chloro-4-fluoro-5-methoxyphenyl)-3-(5-fluoroisoquinolin-4-yl)thieno[3,2-d]pyrimidine-2,4(1H,3H)-dione], the IC50 in assay [1] (setting [2]) came to 0.334 µM. The EC50 in the assay with SARS-CoV-2-NLuc (read-out: MPro EC50) amounted to 0.172 µM.
Regarding `COc1cc(-c2cc3c(s2)c(=O)n(-c2cncc4nc(C(F)(F)F)n(C)c24)c(=O)n3CCC#N)c(Cl)cc1F` [Example 856, 3-(6-(2-chloro-4-fluoro-5-methoxyphenyl)-3-(1-methyl-2-(trifluoromethyl)-1H-imidazo[4,5-c]pyridin-7-yl)-2,4-dioxo-3,4-dihydrothieno[3,2-d]pyrimidin-1(2H)-yl)propanenitrile], the IC50 in assay [1] (setting [2]) was determined as 0.0232 µM. In the assay on SARS-CoV-2-NLuc (setting [3]), the EC50 worked out at 0.0461 µM.
For `COc1ccc(Cl)c(-c2ccc3c(=O)n(-c4cncc5ccc(N6CC(OC)C6)cc45)c(=O)[nH]c3c2)c1` [Example 408], in assay [1] (setting [2]), the IC50 worked out at 0.0427 µM. In addition, the EC50 in the assay with SARS-CoV-2-NLuc (setting [3]) was 0.108 µM.
Regarding `O=c1[nH]c2cc(-c3cccc(Cl)c3)ccc2c(=O)n1-c1cncc2ccccc12` [Example 56], the IC50 in assay [1] (setting [4]) came to 2.75 µM. For the same compound, the EC50 in the assay on SARS-CoV-2-NLuc (setting [3]) was found to be 3.94 µM.
Take `CN(CCO)c1ccc2cncc(-n3c(=O)[nH]c4cc(-c5ccccc5Cl)sc4c3=O)c2c1` [Example 404]: the IC50 in assay [1] (setting [2]) is 0.00649 µM. Also, the EC50 in the assay with SARS-CoV-2-NLuc (setting [3]) worked out at 0.0374 µM.
`N#Cc1cc(-c2cccc(Cl)c2-c2ccc3c(=O)n(-c4cncc5ccccc45)c(=O)[nH]c3c2)ccn1` [Example 328]: the IC50 in assay [1] (setting [4]) worked out at 0.0154 µM. Besides, the EC50 in the assay on SARS-CoV-2-NLuc (setting [3]) was 0.0459 µM.
Regarding `CNC(=O)CCn1c(=O)n(-c2cncc3ccccc23)c(=O)c2sc(-c3ccccc3Cl)cc21` [Example 613, 3-(6-(2-chlorophenyl)-3-(isoquinolin-4-yl)-2,4-dioxo-3,4-dihydrothieno[3,2-d]pyrimidin-1(2H)-yl)-N-methylpropanamide], in assay [1] (setting [2]), the IC50 is 0.0686 µM. Besides, the EC50 with SARS-CoV-2-NLuc (Severe acute respiratory syndrome coronavirus, 48 h; read-out: MPro EC50) was found to be 0.0919 µM.
Consider `O=c1[nH]c2cc(-c3c(Cl)cccc3-c3ccc4c(c3)OCCO4)sc2c(=O)n1-c1cncc2ccccc12` [Example 354], for which the IC50 in assay [1] (setting [4]) turned out to be 0.0456 µM. In the assay on SARS-CoV-2-NLuc (setting [3]), the EC50 amounted to 0.0128 µM.
For the compound `COc1ccc(Cl)c(-c2ccc3c(=O)n(-c4cncc5ccccc45)c(=O)[nH]c3c2)c1` [Example 92, 7-(2-chloro-5-methoxy-phenyl)-3-(4-isoquinolyl)-1H-quinazoline-2,4-dione], the IC50 in assay [1] (setting [4]) worked out at 0.0339 µM. Also, in the assay on SARS-CoV-2-NLuc (setting [3]), the EC50 is 0.0375 µM.
With `COc1cc(Cl)c(-c2ccc3c(=O)n(-c4cncc5ccccc45)c(=O)[nH]c3c2)cc1OC` [Example 255], the IC50 in assay [1] (setting [4]) turned out to be 0.307 µM. Further, the EC50 with SARS-CoV-2-NLuc (setting [3]) came to 0.332 µM.
As for `COc1cc(-c2cc3c(s2)c(=O)n(-c2cncc4cccc(Cl)c24)c(=O)n3CCC#N)c(Cl)cc1F` [Example 921], the IC50 in assay [1] (setting [2]) is 0.00142 µM. Moreover, the 50% effective concentration (EC50) in the assay on SARS-CoV-2-NLuc (setting [3]) came to 0.00192 µM.
On to `COc1cc(-c2cc3c(s2)c(=O)n(-c2cncc4cccnc24)c(=O)n3CC#N)c(Cl)cc1F` [Example 708], for which the IC50 in assay [1] (setting [2]) is 0.00441 µM. The EC50 with SARS-CoV-2-NLuc (setting [3]) amounted to 0.00871 µM.
